{"source": "patent US6632793B1", "about": "“Immunological activity for a peptide of the limulus anti-LPS factor” (Centro de Ingenieria Genetica y Biotecnologia, priority 1997, dated 2003)", "key": {"Pseudomona aerukinosa": {"test_system": "Pseudomona aerukinosa", "experiment": "Survival in mice model of fulminating Gram-negative peritoneal sepsis", "format": "in vivo, mice BalB/c", "experimental": "A model of fulminating Gram-negative peritoneal sepsis was developed in mice BalB/c to characterize the efficacy of LALF peptide in protecting an immunologically intact host against serious infections. Groups of mice received LALF peptide (14 μg/0.1 ml) or saline control (0.1 ml) intraperitoneally 20 hours prior to infectious challenge. A doses of Pseudomona aerukinosa (2×10^8 bacterial/mice) producing a total mortality of approximately 90% (Browder et al., 1987, Surgery. Vol. 102: 206-214) was used in order to induce an experimental peritonitis. Survivor's mice were counted each 24 hours during 120 hours after bacterial challenge. Survival data were analyzed by statistical test Kaplan-Meyer, the significance analysis was determined using a long-rank test, table 5. Blood was collected for TNF quantification from the retroorbital sinus at the time 0, 20, 40, 60, 90, 120, 180, 240 min in the control group and peptide treated-mice. The concentration of TNF-α in mouse serum was determined using a specific ELISA kindly provided by. Dr. W. Buurman (University Hospital Maastrich, The Netherlands). FIG. 4."}, "[1]": {"experiment": "In vivo toxicity after intravenous injection in mice (behavior, survival)", "parameters": "species or system mice BalB/c", "experimental": "(§1) This approach was developed in mice BalB/c between 6-8 old. The mice were injected intravenously with 50 μg of peptide in 0.1 ml [2.5 mg/kg of body weight] or saline solution as a control. The behavior of animals was observed each 4 hours during 24 h. Survival was followed for one week. Blood was collected for TNF-α quantification from the retroorbital sinus at the time 0 h. 6 h, 24 h and 48 h in the control group and peptide treated-mice. The concentration of TNF-α in mouse serum was determined using a specific ELISA kindly provided by Dr. W. Buurman (University Hospital Maastrich, The Netherlands)."}, "[2]": {"test_system": "TNFα from human mononuclear cells", "experiment": "TNF-α synthesis by human mononuclear cells (ELISA of supernatant)", "format": "cell-based", "details": "for TNF - α: 18 h, mean of three donors", "experimental": "Venous blood was obtained from healthy volunteers and Ficoll-Hypaque centrifugation, fractionated mononuclear cells. The mononuclear cells were washed and resuspended in endotoxic-free RPMI 1640 medium supplemented with 10% fetal calf serum. 30×10^6 cells were aliquoted into plates p-60 (Nunc, Denmark). The cells were incubated with 14 or 28 μg/ml LALF at 37° C. for 18 hours in 5% CO2 and then centrifuged at 3000 rpm during 5 min. The synthesis of TNFα in the supernatant was determined by specific enzyme-linked immunoadsorbent assay (ELISA), kindly provided by Dr. W. Buurman (University Hospital Maastrich, The Netherlands)."}, "[3]": {"experiment": "Cell viability of peritoneal macrophages (MTT reduction)", "format": "cell-based, Balb/c mice", "details": "Balb/c, mouse, primary thioglycollate-elicited peritoneal macrophages, 5 μM pre-incubation 18 h, then LPS, read-out: Viability of the cells", "experimental": "(§2) Peritoneal elicited cells were obtained from Balb/c mice (CENPALAB, Havana, Cuba). Primary mouse macrophages was collected from the peritoneal cavity 4 days after intraperitoneal injection with 1 ml of 4% Brewer's thioglicollate broth. Cell were maintained in RPMI 1640 supplemented with 10% heat-inactivated fetal bovine serum, 2 mM L-glutamine, 200 units/ml penicillin, and 200 μg/ml streptomycin at 37° C. in 5% CO2/[…].\n(§3) Assay for Secretion of NO2-(Jin, F^29, Nathan, C, Radzioch, 0, and Ding, A. Cell, 1997, 88: 417-426). Cells were plated in 96-well plates at 2×10^6 cells /ml in 200 μl of medium and incubated at 37° C. for 2 h, then non-adherent cells were removed by repeated washing with PBS. Macrophage were pre-incubated with 5 μM of LALF peptide during 18 h, afterward were washed with RPMI medium in order to eliminated the peptide. Then the macrophages were treated 72 hr with LPS of E. coli 0111:B4, Sigma (1 μg/ml). Cell viability was assessed by mitochondrial-dependent reduction of MTT to formazan (Szabo^30, c, Mitchell, J A, Gross, S S, Thiemermann, C, and Vane, JR. J. Pharm. Exp. Therap., 1992, 265: 674-80). […] Absorbance at 540 nm was recorded in a microplate reader (SUMA) with sodium nitrite as standards (Green^28, L C, Wagner, D A, Glogowski, J, et al. Anal Biochem 1982; 126: 131-8). […]"}, "TNF-α in mouse serum [4]": {"test_system": "TNF-α in mouse serum", "experiment": "Serum TNF after P. aeruginosa challenge in peptide-treated mice (ELISA)", "format": "in vivo, mice BalB/c", "details": "14 μg i.p. 20 h before P. aeruginosa; 0-240 min; FIG. 4", "procedure": "Groups of mice received LALF peptide (14 μg/0.1 ml) or saline control (0.1 ml) intraperitoneally 20 hours prior to infectious challenge. […] Blood was collected for TNF quantification from the retroorbital sinus at the time 0, 20, 40, 60, 90, 120, 180, 240 min in the control group and peptide treated-mice. The concentration of TNF-α in mouse serum was determined using a specific ELISA kindly provided by.\nEight-week-old mice were injected i.p. with 14 μg of peptide in 0.1 ml saline or saline alone. Twenty hours after the mice were injected i.p. with a lethal doses of P. aeruginosa. At 0, 20, 40, 60, 90, 120, 180 and 240 min following the challenge, the mice were bled from the retroorbital sinus and the serum concentration of TNF was measured."}, "[5]": {"test_system": "NO production in peritoneal macrophages", "experiment": "NO2- secretion (Greiss) in LPS-activated peritoneal macrophages pre-incubated with peptide", "format": "cell-based, Balb/c mice", "details": "5 μM pre-incubation 18 h, then LPS 1 μg/ml 72 h; FIG. 7", "experimental": "as §2\nas §3, with “Macrophage were pre-incubated with 5 μM of LALF peptide during 18 h, afterward were washed with RPMI medium in order to eliminated the peptide. Then the macrophages were treated 72 hr with LPS of E. coli 0111:B4, Sigma (1 μg/ml).” left out\nFIG. 7: Regulatory effect of LALF derived-peptide on NO production in stimulated peritoneal macrophages. […] Levels of NO were measured in the cells cultured supernatants using the Greiss method."}, "TNF-α in mouse serum [6]": {"test_system": "TNF-α in mouse serum", "experiment": "Serum TNF-α after intravenous injection of peptide in mice (ELISA)", "format": "in vivo, mice BalB/c", "details": "50 μg intravenously; serum at 0 h, 6 h, 24 h and 48 h; FIG. 3", "experimental": "as §1"}, "[7]": {"test_system": "TNF-α in peritoneal macrophages", "experiment": "TNF-α production in LPS-activated peritoneal macrophages pre-incubated with peptide", "format": "cell-based, Balb/c mice", "details": "5 μM pre-incubation 18 h, then LPS 1 μg/ml; 1-24 h; FIG. 6", "experimental": "as §2\nTNF-α assay: Cells were plated in 96-well plates at 2×10^6 cells/ml in 200 μl of medium and incubated at 37° C. for 2 h. Non-adherent cells were removed by repeated washing with PBS. Macrophages were pre-incubated with 5 μM of LALF peptide during 18 h, afterward were washed with RPMI medium in order to eliminate the peptide. Then macrophages were treated with LPS of E. coli 0111:B4, Sigma (1 μg/ml). TNF-α was determined in supematants from cultured cells at the time 1 h, 2 h, 4 h, 6 h and 24 h used a kit of ELISA kindly provided by [Dr. W. Buurman Univ. Hosp. Maastrich, Netherlands].\nFIG. 6: Regulatory effect of LALF derived-peptide on TNF-α production in stimulated peritoneal macrophages. The macrophages were pretreated with 5 μM of LALF peptide during 18 hours and then the cells were activated with 1 μg of E. coli LPS. TNF-α was measured in the cells cultured supernatants at different time."}}, "note": "Where a SMILES comes first, the peptide text is derived from it."}
{"compound": "CC[C@H](C)[C@H](NC(=O)[C@H](CCCNC(=N)N)NC(=O)[C@H](Cc1ccc(O)cc1)NC(=O)[C@H](Cc1c[nH]cn1)NC(=O)[C@@H](N)CS)C(=O)N[C@@H](CCCCN)C(=O)N1CCC[C@H]1C(=O)N[C@H](C(=O)N[C@@H](Cc1ccccc1)C(=O)N[C@@H](CCCNC(=N)N)C(=O)N[C@@H](CCCNC(=N)N)C(=O)N[C@@H](CC(C)C)C(=O)N[C@@H](CCCCN)C(=O)N[C@@H](Cc1c[nH]c2ccccc12)C(=O)N[C@@H](CCCCN)C(=O)N[C@@H](Cc1ccc(O)cc1)C(=O)N[C@@H](CCCCN)C(=O)NCC(=O)N[C@@H](CCCCN)C(=O)N[C@@H](Cc1ccccc1)C(=O)N[C@@H](Cc1c[nH]c2ccccc12)C(=O)N[C@@H](CS)C(=O)O)[C@@H](C)O", "note": "[LALF] (H-CHYRIKPTFRRLKWKYKGKFWC-OH)", "values": [{"measurement": "Survival (%)", "setting": "Pseudomona aerukinosa; 14 μg/0.1 ml intraperitoneally 20 hours prior to challenge with 2×10^8 bacteria/mouse, followed 120 hours", "value": 36, "unit": "%"}, {"measurement": "Protection from lethal bacterial challenge (in words)", "setting": "Pseudomona aerukinosa; administrated prophylactically", "value": "protects mice from lethal bacterial challenge"}, {"measurement": "Toxicity in vivo (in words)", "setting": "[1]; 50 μg [2.5 mg/kg] intravenously", "value": "not toxic in vivo"}, {"measurement": "Survival after intravenous injection (in words)", "setting": "[1]; 50 μg in 0.1 ml [2.5 mg/kg] intravenously, followed one week", "value": "All mice [10 animals/group] survivor beyond of one week"}, {"measurement": "TNF - α", "setting": "[2]; 14 μg/ml", "value": 0.84, "unit": "ng/mL"}, {"measurement": "TNF - α", "setting": "[2]; 28 μg/ml", "value": 0.80, "unit": "ng/mL"}, {"measurement": "TNF-α levels versus control buffer treated cells (in words)", "setting": "[2]; 14-28 μg/ml alone", "value": "did not induce increased levels of TNF-α over the control buffer treated cells"}, {"measurement": "viability at 18 h, 5 µM", "setting": "[3]", "value": "≥ 98", "unit": "%"}, {"measurement": "Effect on systemic TNF after bacterial challenge (in words)", "setting": "TNF-α in mouse serum [4]", "value": "induced a decrease of the proinflammatory cytokine TNF"}, {"measurement": "NO production in LPS-activated macrophages (in words)", "setting": "[5]", "value": "up regulated"}, {"measurement": "TNF-α production in vivo (in words)", "setting": "TNF-α in mouse serum [6]", "value": "does not stimulate TNF-α production"}, {"measurement": "TNF levels in LPS-activated macrophages (in words)", "setting": "[7]", "value": "down regulated"}]}
